The subject of data set [1] is Rattus norvegicus. Put plainly: Antihyperlipidemic activity in high-cholesterol diet-induced hypercholesterolemia Swiss albino rat model assessed as reduction in serum cholesterol level at 10 mg/kg/day, po administered via gavage simultaneously with diet cocktail for 14 days by UV-spectrophotometry relative to untreated control. It is filed as functional. To be noted: 336 h.

In data set [2] the test system is Rattus norvegicus. Put plainly: Antihyperlipidemic activity in streptozotocin-induced diabetic rat model assessed as serum triglyceride level at 10 mg/kg/day, po dosed via gavage for 14 days administered 3 days after streptozotocin challenge by UV-spectrophotometry. The class given is functional.
Data set [3] deals with Rattus norvegicus. Put plainly: Hypoglycemic activity in streptozotocin-induced diabetic rat model assessed as decrease in serum glucose level at 10 mg/kg/day, po dosed via gavage for 14 days administered 3 days after streptozotocin challenge by UV-spectrophotometry. It is filed as functional.
Data set [4] has as its system Rattus norvegicus. Nature of the data set: Antihyperlipidemic activity in streptozotocin-induced diabetic rat model assessed as serum cholesterol level at 10 mg/kg/day, po dosed via gavage for 14 days administered 3 days after streptozotocin challenge by UV-spectrophotometry. The class given is functional.
For data set [5], the system named is Rattus norvegicus. Nature of the data set: Antihyperlipidemic activity in high-cholesterol diet-induced hypercholesterolemia Swiss albino rat model assessed as reduction in serum cholesterol level at 160 mg/kg/day, po administered via gavage simultaneously with diet cocktail for 14 days by UV-spectrophotometry relative to untreated control. The class given is functional, organism-based.

Data set [6] deals with Rattus norvegicus. Nature of the data set: Toxicity in healthy rat assessed as incidence of mortality at 2000 to 7000 mg/kg, po measured after 24 hrs. It is filed as organism-based. Also on record: dose 2000-7000 mg/kg, route oral. To be noted: in vivo.
A short description of data set [7]: Toxicity in intra-gastrically dosed healthy rat administered as single dose. It is filed as organism-based. To be noted: in vivo, po.
Data set [8] deals with Rattus norvegicus. Put plainly: Toxicity in healthy rat at 2000 to 7000 mg/kg, po measured after 24 hrs. The class given is organism-based. On the set-up: dose 2000-7000 mg/kg, route oral. The settings on record: in vivo.
The subject of data set [9] is Rattus norvegicus. Nature of the data set: Toxicity in healthy rat assessed as incidence of less responsive state at 2000 to 7000 mg/kg, po measured after 2 to 6 hrs. It is filed as organism-based. On the set-up: route oral. The settings on record: in vivo.

The text below walks through data of ChEMBL document CHEMBL1817550, “Synthesis and biological evaluation of some novel cyclic-imides as hypoglycaemic, anti-hyperlipidemic agents” (Eur J Med Chem, 2011).

The source made the active and inactive calls. The calls are words filed in the database; no cut-off is given here.

The inhibition in vivo is the drop in the measured response relative to a control, in per cent. By LD50 is commonly meant the dose at which mortality reaches 50%. High values mean lower toxicity, low ones greater toxicity.

Regarding `O=C1c2cc(Cl)c(Cl)cc2C(=O)N1c1ccccn1`, the inhibition in vivo at 10 mg/kg/day in the data set on Rattus norvegicus [1] stood at 17%; in the data set with Rattus norvegicus [3], 3%. For the same compound, the results for the Activity with Rattus norvegicus [2] and with Rattus norvegicus [4] were 90.5 mg/dL and 126.2 mg/dL, respectively.
For the compound `O=C1[C@@H]2[C@H](C(=O)N1Cc1ccccn1)C1(Cl)C(Cl)=C(Cl)C2(Cl)C1(Cl)Cl`, in the data set on Rattus norvegicus [1], the inhibition in vivo at 10 mg/kg/day worked out at 4%. Further, the Activity in the data set with Rattus norvegicus [2] is 123 mg/dL; in the data set on Rattus norvegicus [4] it was 149.3 mg/dL.
As for `O=C1c2c(Cl)c(Cl)c(Cl)c(Cl)c2C(=O)N1CCc1ccccn1`, in the data set on Rattus norvegicus [1], the inhibition in vivo at 10 mg/kg/day was determined as 48%. The Activity in the data set with Rattus norvegicus [2] is 80 mg/dL; in the data set on Rattus norvegicus [4] it was 107.2 mg/dL.
`O=C1[C@@H]2[C@H](C(=O)N1c1ccncc1)C1(Cl)C(Cl)=C(Cl)C2(Cl)C1(Cl)Cl`: the inhibition in vivo at 10 mg/kg/day worked out at 41% with Rattus norvegicus [1] and 27% in the data set with Rattus norvegicus [3]. In addition, the Activity in the data set with Rattus norvegicus [2] worked out at 77 mg/dL; in the data set on Rattus norvegicus [4], 169.3 mg/dL.
Consider `O=C1c2cc(Cl)c(Cl)cc2C(=O)N1c1ccncc1`, for which the inhibition in vivo at 10 mg/kg/day with Rattus norvegicus [1] is 19%. Further, the Activity in the data set with Rattus norvegicus [2] amounted to 112 mg/dL; with Rattus norvegicus [4], 146 mg/dL.
In the case of `O=C1[C@@H]2[C@H](C(=O)N1CCN1CCOCC1)C1(Cl)C(Cl)=C(Cl)C2(Cl)C1(Cl)Cl`, the inhibition in vivo at 10 mg/kg/day in the data set on Rattus norvegicus [1] stood at 7%. Also, the Activity in the data set with Rattus norvegicus [2] stood at 91.33 mg/dL; in the data set with Rattus norvegicus [4], 152.3 mg/dL.
For `O=C1[C@@H]2[C@H](C(=O)N1c1ncccn1)C1(Cl)C(Cl)=C(Cl)C2(Cl)C1(Cl)Cl` the same measures were 44%, 89.33 mg/dL and 162.3 mg/dL.
With `O=C1c2cc(Cl)c(Cl)cc2C(=O)N1c1ncccn1`, the inhibition in vivo at 10 mg/kg/day was 58% with Rattus norvegicus [1] and 32% in the data set on Rattus norvegicus [3]. In addition, the outcome in the data set with Rattus norvegicus [5] was Active. The Activity was 70.66 mg/dL in the data set on Rattus norvegicus [2]; “Non-toxic” in the data set on Rattus norvegicus [6]; “Non-toxic” in the data set with Rattus norvegicus [8]; “Toxic” with Rattus norvegicus [9]; 96 mg/dL in the data set on Rattus norvegicus [4]. Moreover, the median lethal dose (LD50) in data set [7] amounted to 4240 mg/kg.
For the compound `COc1ccc(Cl)cc1C(=O)NCCc1ccc(S(=O)(=O)NC(=O)NC2CCCCC2)cc1` [GLYBURIDE], the inhibition in vivo at 10 mg/kg/day with Rattus norvegicus [1] worked out at 11%; in the data set with Rattus norvegicus [3] it was 52%. In addition, the Activity is 87.6 mg/dL in the data set with Rattus norvegicus [2] and 102.6 mg/dL with Rattus norvegicus [4].
For the compound `O=C1c2c(Br)c(Br)c(Br)c(Br)c2C(=O)N1c1ccncc1`, the inhibition in vivo at 10 mg/kg/day in the data set on Rattus norvegicus [1] was found to be 13%. Moreover, the Activity in the data set with Rattus norvegicus [2] amounted to 120 mg/dL; with Rattus norvegicus [4], 171 mg/dL.
On to `O=C1c2c(Br)c(Br)c(Br)c(Br)c2C(=O)N1Cc1ccccn1`, for which the inhibition in vivo at 10 mg/kg/day in the data set with Rattus norvegicus [1] turned out to be 54%; in the data set with Rattus norvegicus [3], 35%. In the data set with Rattus norvegicus [5], the result was Active. For the same compound, the Activity in the data set with Rattus norvegicus [2] is 82.66 mg/dL; with Rattus norvegicus [6], “Non-toxic”; in the data set with Rattus norvegicus [8], “Non-toxic”; with Rattus norvegicus [9], “Toxic”; in the data set with Rattus norvegicus [4] it was 92.33 mg/dL. Besides, the LD50 in [7] was 5010 mg/kg.
With `O=C1[C@@H]2[C@H](C(=O)N1CCc1ccccn1)C1(Cl)C(Cl)=C(Cl)C2(Cl)C1(Cl)Cl`, the inhibition in vivo at 10 mg/kg/day in the data set on Rattus norvegicus [1] was 53%; with Rattus norvegicus [3], 7%. Moreover, the figures for the Activity with Rattus norvegicus [2] and in the data set with Rattus norvegicus [4] were 71 mg/dL and 89.75 mg/dL, respectively.
For `O=C1c2c(Cl)c(Cl)c(Cl)c(Cl)c2C(=O)N1c1ccncc1` the same measures were 44%, 3%, 110.6 mg/dL and 129.5 mg/dL.
For `O=C1c2c(Br)c(Br)c(Br)c(Br)c2C(=O)N1c1ncccn1` the same measures were 19%, 28%, 110.6 mg/dL and 196 mg/dL.
Take `O=C1c2c(Br)c(Br)c(Br)c(Br)c2C(=O)N1c1ccccn1`: the inhibition in vivo at 10 mg/kg/day in the data set with Rattus norvegicus [1] is 21%. For the same compound, the Activity came out at 100.3 mg/dL in the data set with Rattus norvegicus [2] and 150.3 mg/dL in the data set with Rattus norvegicus [4].
For `O=C1c2c(Br)c(Br)c(Br)c(Br)c2C(=O)N1CCc1ccccn1`, the inhibition in vivo at 10 mg/kg/day in the data set on Rattus norvegicus [1] was 20%; in the data set on Rattus norvegicus [3], 18%. Further, the Activity in the data set with Rattus norvegicus [2] stood at 91.33 mg/dL; with Rattus norvegicus [4], 164.6 mg/dL.
On to `O=C1c2cc(Cl)c(Cl)cc2C(=O)N1CCc1ccccn1`, for which the inhibition in vivo at 10 mg/kg/day with Rattus norvegicus [1] turned out to be 56%; with Rattus norvegicus [3] it was 55%. For the same compound, the result in the data set on Rattus norvegicus [5] was Active. Moreover, the Activity in the data set with Rattus norvegicus [2] was 71.6 mg/dL; in the data set with Rattus norvegicus [6] it was “Non-toxic”; in the data set with Rattus norvegicus [8] it was “Non-toxic”; with Rattus norvegicus [9] it was “Toxic”; in the data set with Rattus norvegicus [4] it was 92.33 mg/dL. Further, the LD50 in data set [7] was 5260 mg/kg.
For the compound `O=C1c2c(Br)c(Br)c(Br)c(Br)c2C(=O)N1CCN1CCOCC1`, the inhibition in vivo at 10 mg/kg/day in the data set with Rattus norvegicus [1] was found to be 7%; with Rattus norvegicus [3] it was 20%. The Activity with Rattus norvegicus [2] turned out to be 80 mg/dL; in the data set on Rattus norvegicus [4] it was 161.3 mg/dL.
For `O=C1c2c(Cl)c(Cl)c(Cl)c(Cl)c2C(=O)N1Cc1ccccn1` the same measures were 47%, 23%, 82.66 mg/dL and 105 mg/dL.
Regarding `O=C1c2c(Cl)c(Cl)c(Cl)c(Cl)c2C(=O)N1CCN1CCOCC1`, the inhibition in vivo at 10 mg/kg/day was determined as 46% in the data set on Rattus norvegicus [1] and 10% in the data set on Rattus norvegicus [3]. The Activity amounted to 100.3 mg/dL in the data set with Rattus norvegicus [2] and 105.7 mg/dL with Rattus norvegicus [4].
In the case of `O=C1[C@@H]2[C@H](C(=O)N1c1ccccn1)C1(Cl)C(Cl)=C(Cl)C2(Cl)C1(Cl)Cl`, the inhibition in vivo at 10 mg/kg/day amounted to 33% with Rattus norvegicus [1] and 25% with Rattus norvegicus [3]. For the same compound, the Activity amounted to 94.33 mg/dL with Rattus norvegicus [2] and 129.6 mg/dL in the data set with Rattus norvegicus [4].
As to `O=C1c2cc(Cl)c(Cl)cc2C(=O)N1Cc1ccccn1`, the inhibition in vivo at 10 mg/kg/day with Rattus norvegicus [1] came to 11%. The figures for the Activity with Rattus norvegicus [2] and in the data set with Rattus norvegicus [4] were 93 mg/dL and 155.3 mg/dL, respectively.
For `O=C1c2cc(Cl)c(Cl)cc2C(=O)N1CCN1CCOCC1`, the figures for the inhibition in vivo at 10 mg/kg/day with Rattus norvegicus [1] and with Rattus norvegicus [3] were 42% and 30%, respectively. The values for the Activity in the data set with Rattus norvegicus [2] and in the data set with Rattus norvegicus [4] were 97.66 mg/dL and 88.66 mg/dL, respectively.
For `O=C1c2c(Cl)c(Cl)c(Cl)c(Cl)c2C(=O)N1c1ncccn1` the same measures were 3%, 5%, 123 mg/dL and 117 mg/dL.
`O=C1c2c(Cl)c(Cl)c(Cl)c(Cl)c2C(=O)N1c1ccccn1`: the inhibition in vivo at 10 mg/kg/day in the data set on Rattus norvegicus [1] was determined as 9%. The figures for the Activity in the data set with Rattus norvegicus [2] and with Rattus norvegicus [4] were 120 mg/dL and 140.3 mg/dL, respectively.
